Results taken from article PMC5137160, “Optical imaging of MMP-12 active form in inflammation and aneurysm” (Scientific Reports, 2016).

What was measured:
hMMP-3 = target: T1, hMMP-3 (Homo sapiens, UniProt P08254); experiment: MMP inhibition assay (Ki); assay type: biochemical
T1 construct: purchased R&D Systems (Minneapolis, MN)
Description: (§1) Human MMP-8, -9, -12 and -13 were produced in the laboratory. Other MMPs were purchased from R&D Systems (Minneapolis, MN). MMP inhibition assays were carried out as previously described. Pro-MMPs were pre-activated by p-aminophenylmercuric acetate following the method described by R&D Systems. Titration experiments were carried out to determine active enzyme concentration for each MMP prior to the assay. For each probe, the percentage of inhibition was determined from five different concentrations in triplicates, chosen to reach a range of 20–80% inhibition. Ki values were determined using the method proposed by Horovitz and Leviski[45].

hMMP-1 = target: T2, hMMP-1 (Homo sapiens, UniProt P03956); experiment: MMP inhibition assay (Ki); assay type: biochemical
T2 construct: purchased R&D Systems (Minneapolis, MN)
T2 sequence (P03956 100-469): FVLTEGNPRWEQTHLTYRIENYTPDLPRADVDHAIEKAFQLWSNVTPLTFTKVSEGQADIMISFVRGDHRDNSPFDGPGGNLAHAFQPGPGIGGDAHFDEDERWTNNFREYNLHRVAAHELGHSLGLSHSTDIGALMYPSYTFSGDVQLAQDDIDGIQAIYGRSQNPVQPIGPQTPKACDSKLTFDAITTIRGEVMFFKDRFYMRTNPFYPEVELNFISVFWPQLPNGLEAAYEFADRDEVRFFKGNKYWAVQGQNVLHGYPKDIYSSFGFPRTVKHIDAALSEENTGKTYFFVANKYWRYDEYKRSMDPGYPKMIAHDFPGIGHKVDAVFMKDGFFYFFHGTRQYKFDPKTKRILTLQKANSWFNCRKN
Description: as §1

hMMP-9 = target: T3, hMMP-9 (Homo sapiens, UniProt P14780); experiment: MMP inhibition assay (Ki); assay type: biochemical
T3 construct: made in house
T3 sequence (P14780 94-707): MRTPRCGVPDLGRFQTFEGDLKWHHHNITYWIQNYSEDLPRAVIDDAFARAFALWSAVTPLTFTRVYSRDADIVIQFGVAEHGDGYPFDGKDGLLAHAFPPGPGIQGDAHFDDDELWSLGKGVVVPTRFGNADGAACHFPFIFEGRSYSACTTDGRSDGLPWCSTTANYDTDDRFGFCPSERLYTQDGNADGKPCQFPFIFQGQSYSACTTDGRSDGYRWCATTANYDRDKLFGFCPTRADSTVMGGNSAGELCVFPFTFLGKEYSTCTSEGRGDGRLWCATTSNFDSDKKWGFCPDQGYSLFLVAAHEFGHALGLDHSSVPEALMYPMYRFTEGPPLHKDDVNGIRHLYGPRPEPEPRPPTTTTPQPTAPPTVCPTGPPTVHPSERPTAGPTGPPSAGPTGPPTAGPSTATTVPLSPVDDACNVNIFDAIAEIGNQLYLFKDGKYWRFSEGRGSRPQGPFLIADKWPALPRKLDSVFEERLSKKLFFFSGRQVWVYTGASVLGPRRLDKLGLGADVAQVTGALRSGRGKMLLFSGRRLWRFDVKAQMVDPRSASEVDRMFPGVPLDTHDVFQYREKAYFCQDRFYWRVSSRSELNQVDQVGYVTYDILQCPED
Description: as §1

hMMP-10 = target: T4, hMMP-10 (Homo sapiens, UniProt P09238); experiment: MMP inhibition assay (Ki); assay type: biochemical
T4 construct: purchased R&D Systems (Minneapolis, MN)
T4 sequence (P09238 99-476): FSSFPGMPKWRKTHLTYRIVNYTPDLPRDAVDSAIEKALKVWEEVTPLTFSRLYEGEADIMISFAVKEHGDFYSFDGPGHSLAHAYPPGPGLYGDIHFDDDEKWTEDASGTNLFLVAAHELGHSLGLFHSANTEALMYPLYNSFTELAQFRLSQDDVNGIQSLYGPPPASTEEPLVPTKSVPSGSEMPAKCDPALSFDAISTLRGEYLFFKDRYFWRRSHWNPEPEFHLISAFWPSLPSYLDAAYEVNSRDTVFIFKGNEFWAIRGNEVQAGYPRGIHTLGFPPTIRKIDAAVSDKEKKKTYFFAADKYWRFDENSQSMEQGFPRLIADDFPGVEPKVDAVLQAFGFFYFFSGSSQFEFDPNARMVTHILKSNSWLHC
Description: as §1

hMMP-13 = target: T5, hMMP-13 (Homo sapiens, UniProt P45452); experiment: MMP inhibition assay (Ki); assay type: biochemical
T5 construct: made in house
Description: as §1

hMMP-8 = target: T6, hMMP-8 (Homo sapiens, UniProt P22894); experiment: MMP inhibition assay (Ki); assay type: biochemical
T6 construct: made in house
T6 sequence (P22894 101-467): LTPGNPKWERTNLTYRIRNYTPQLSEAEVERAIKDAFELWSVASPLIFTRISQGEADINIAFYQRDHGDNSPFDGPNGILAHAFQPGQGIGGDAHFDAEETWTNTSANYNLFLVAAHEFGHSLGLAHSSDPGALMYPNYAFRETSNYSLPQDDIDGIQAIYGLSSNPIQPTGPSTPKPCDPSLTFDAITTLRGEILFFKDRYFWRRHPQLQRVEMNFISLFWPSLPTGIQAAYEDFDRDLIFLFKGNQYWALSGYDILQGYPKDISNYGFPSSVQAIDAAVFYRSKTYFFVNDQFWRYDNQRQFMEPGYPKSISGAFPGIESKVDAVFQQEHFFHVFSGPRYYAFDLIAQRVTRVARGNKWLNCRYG
Description: as §1

hMMP-14 = target: T7, hMMP-14 (Homo sapiens, UniProt P50281); experiment: MMP inhibition assay (Ki); assay type: biochemical
T7 construct: purchased R&D Systems (Minneapolis, MN)
Description: as §1

hMMP-7 = target: T8, hMMP-7 (Homo sapiens, UniProt P09237); experiment: MMP inhibition assay (Ki); assay type: biochemical
T8 construct: purchased R&D Systems (Minneapolis, MN)
T8 sequence (P09237 95-267): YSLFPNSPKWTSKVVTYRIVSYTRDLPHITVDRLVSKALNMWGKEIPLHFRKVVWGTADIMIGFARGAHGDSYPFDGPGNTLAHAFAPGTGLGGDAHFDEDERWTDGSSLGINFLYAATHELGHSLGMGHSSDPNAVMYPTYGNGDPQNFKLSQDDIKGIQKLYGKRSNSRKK
Description: as §1

hMMP-2 = target: T9, hMMP-2 (Homo sapiens, UniProt P08253); experiment: MMP inhibition assay (Ki); assay type: biochemical
T9 construct: purchased R&D Systems (Minneapolis, MN)
T9 sequence (P08253 110-660): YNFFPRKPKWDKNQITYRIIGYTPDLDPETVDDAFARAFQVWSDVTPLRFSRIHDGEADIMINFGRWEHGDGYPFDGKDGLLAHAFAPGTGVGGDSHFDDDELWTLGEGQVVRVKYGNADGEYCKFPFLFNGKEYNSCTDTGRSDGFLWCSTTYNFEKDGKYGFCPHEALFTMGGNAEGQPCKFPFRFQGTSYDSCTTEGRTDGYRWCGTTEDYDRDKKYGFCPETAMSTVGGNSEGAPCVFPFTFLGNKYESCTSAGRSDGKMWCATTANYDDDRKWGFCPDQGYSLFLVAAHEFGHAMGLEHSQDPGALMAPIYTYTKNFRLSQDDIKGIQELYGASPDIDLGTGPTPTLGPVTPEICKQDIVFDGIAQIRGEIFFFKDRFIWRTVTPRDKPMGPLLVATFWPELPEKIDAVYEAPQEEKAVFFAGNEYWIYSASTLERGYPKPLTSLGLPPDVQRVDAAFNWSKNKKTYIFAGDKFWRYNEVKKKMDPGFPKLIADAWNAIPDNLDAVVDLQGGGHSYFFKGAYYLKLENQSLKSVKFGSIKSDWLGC
Description: as §1

ADAMTS-5 = target: T10, ADAMTS-5 (Homo sapiens, UniProt Q9UNA0); experiment: Metalloprotease inhibition assay (Ki); assay type: biochemical
T10 sequence (Q9UNA0 262-930): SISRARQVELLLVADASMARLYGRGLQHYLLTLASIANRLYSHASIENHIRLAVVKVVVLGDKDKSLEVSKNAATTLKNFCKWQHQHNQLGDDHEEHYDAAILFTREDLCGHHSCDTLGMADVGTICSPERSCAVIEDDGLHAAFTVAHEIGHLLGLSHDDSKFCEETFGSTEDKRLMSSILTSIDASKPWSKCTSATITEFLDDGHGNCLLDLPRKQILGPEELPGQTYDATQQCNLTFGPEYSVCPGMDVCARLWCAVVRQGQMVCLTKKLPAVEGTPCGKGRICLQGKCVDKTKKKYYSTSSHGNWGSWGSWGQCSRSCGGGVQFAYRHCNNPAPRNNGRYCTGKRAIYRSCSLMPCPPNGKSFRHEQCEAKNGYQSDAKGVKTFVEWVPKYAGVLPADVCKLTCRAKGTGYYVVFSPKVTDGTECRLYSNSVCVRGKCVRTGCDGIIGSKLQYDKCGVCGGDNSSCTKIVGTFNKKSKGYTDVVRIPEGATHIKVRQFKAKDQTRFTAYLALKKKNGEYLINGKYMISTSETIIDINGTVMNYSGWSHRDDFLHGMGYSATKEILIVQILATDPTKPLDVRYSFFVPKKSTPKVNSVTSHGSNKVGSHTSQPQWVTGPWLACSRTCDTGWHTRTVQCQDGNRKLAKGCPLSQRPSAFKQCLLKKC

hMMP-12 = experiment: MMP inhibition assay (Ki); assay type: biochemical, human
Description: as §1

[1] = Blood levels in apoE-/- mice; assay type: in vivo; details: mouse, whole blood, intravenous, 1 nmol, read-out: Blood level
Description: Fluorescent probes (one nmol in 100 μL saline) were administered through a jugular vein catheter under inhaled isoflurane anesthesia. Blood samples were collected at various time points after probe administration to monitor blood clearance. Animals were sacrificed at the indicated time points and various organs were harvested. Near-infrared fluorescence reflectance imaging was conducted using an IVIS Spectrum system (Caliper Life Science, Hopkinton, MA) with appropriate excitation (Ex) and emission (Em) filter sets (Ex/Em = 675/720 nm for probe 1 and Ex/Em = 745/800 nm for probes 3 and 4). Fluorescence from 10 μL of blood was converted to % injected dose per gram (% ID/g) using a standard curve derived from serial dilutions of each probe in 10 μL of mouse blood. Tissue fluorescence was quantified as mean efficiency per pixel and was presented as an arbitrary unit (AU) relative to the signal from each probe in 10 μL of mouse blood.

T1 sequence (P08254 100-477): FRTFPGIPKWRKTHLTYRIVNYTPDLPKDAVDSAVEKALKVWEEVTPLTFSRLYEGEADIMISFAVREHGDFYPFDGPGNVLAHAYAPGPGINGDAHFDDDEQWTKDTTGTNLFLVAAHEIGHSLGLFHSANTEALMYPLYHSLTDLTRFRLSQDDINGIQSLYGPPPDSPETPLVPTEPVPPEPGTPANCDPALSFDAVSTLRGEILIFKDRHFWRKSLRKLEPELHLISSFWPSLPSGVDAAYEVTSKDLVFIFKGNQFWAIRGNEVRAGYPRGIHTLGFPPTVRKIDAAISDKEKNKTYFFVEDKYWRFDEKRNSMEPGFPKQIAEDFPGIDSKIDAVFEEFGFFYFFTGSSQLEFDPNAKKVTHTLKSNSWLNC

| Structure (SMILES) | Ki (hMMP-3) | Ki (hMMP-1) | Ki (hMMP-9) | Ki (hMMP-10) | Ki (hMMP-13) | Ki (hMMP-8) | Ki (hMMP-14) | Ki (hMMP-7) | Ki (hMMP-2) | Ki (ADAMTS-5) | Ki (hMMP-12) | difference in potency towards MMP-12, factor relative to probe 1 (hMMP-12; relative to probe 1) | tissue uptake at 30 min [1] | tissue uptake at 60 min [1] |
| --- | --- | --- | --- | --- | --- | --- | --- | --- | --- | --- | --- | --- | --- | --- |
| CC1(C)C(/C=C/C2=C(Oc3ccc(CCC(=O)NCCCOCCOCCOCCCNC(=O)[C@H](CCC(=O)[O-])NC(=O)[C@H](CCC(=O)O)NC(=O)[C@H](Cc4cc(-c5ccc(-c6cccc(Cl)c6)cc5)no4)CP(=O)(O)c4ccc(Br)cc4)cc3)C(=C/C=C3/N(CCC[N+](C)(C)C)c4ccc(S(=O)(=O)[O-])cc4C3(C)C)/CCC2)=[N+](CCC[N+](C)(C)C)c2ccc(S(=O)(=O)[O-])cc21 [probe 3] | 0.367 ± 0.061 µM | > 10 µM | 4.79 ± 0.535 µM | 0.136 ± 0.022 µM | 0.124 ± 0.007 µM | 3.31 ± 0.348 µM | 1.02 ± 0.069 µM | 4.99 ± 0.151 µM | 2.13 ± 0.172 µM | > 10 µM | 0.0034 ± 0.0003 µM | 4 | 2.7 ± 0.1 %ID/g | 2.3 ± 0.3 %ID/g |
| CC1(C)C(=CC=C2CCCC(C=CC3=[N+](CCC[N+](C)(C)C)c4ccc(S(=O)(=O)[O-])cc4C3(C)C)=C2Oc2ccc(CCC(=O)NCCCOCCOCCOCCCNC(=O)C(CCC(=O)[O-])NC(=O)C(CCC(=O)O)NC(=O)C(Cc3cc(-c4cccc(Oc5ccccc5)c4)no3)CP(=O)(O)c3ccc(Br)cc3)cc2)N(CCC[N+](C)(C)C)c2ccc(S(=O)(=O)[O-])cc21 (stereo not drawn) [probe 4] | > 12 µM | > 10 µM | 4.9 ± 1.3 µM | 6.43 ± 1.67 µM | 7.73 ± 1.53 µM | 7.5 ± 0.73 µM | 7.86 ± 1.53 µM | 9.8 ± 0.32 µM | > 12 µM | > 10 µM | 4.04 ± 0.67 µM | – | 2.4 ± 0.3 %ID/g | 2 ± 0.2 %ID/g |
